The results in this text go back to patent publication US9765378B2, “Preparation method of new recombinant antibacterial polypeptide medicine” (priority 2011, dated 2017).

This assay relates to Staphylococcus (Staphylococcus aureus, Staphylococcus epidermidis, Staphylococcus saprophyticus, and Staphylococcus sciuri). Briefly: in vitro inhibition and bactericidal effect on bovine mastitis isolated pathogenic bacteria: Staphylococcus. Particulars: control antibiotics. It counts as cell-based. How it is done:
(5) the recombinant antibacterial polypeptide medicine was tested for the in vitro inhibition and bactericidal effect on bovine mastitis isolated pathogenic bacteria.

`CC(=O)OCC1=C(C(=O)O)N2C(=O)[C@@H](NC(=O)Cc3cccs3)[C@H]2SC1` [cephalothin]: the “inhibition and bactericidal effect of controls (MIC50/MBC50 not specified)” value turned out to be 2 µg/mL.
Under `Cc1onc(-c2ccccc2)c1C(=O)N[C@@H]1C(=O)N2[C@@H]1SC(C)(C)[C@@H]2C(=O)O` [oxacillin] stands 4 µg/mL.
